The series is described as follows: activity coefficient (dimensionless); of the first substance listed, at infinite dilution; xn = mol fraction of the nth substance listed. The note with it: 101.33 kPa, Liquid, Chromatography, x1 = 0.

Numbers after ± are expanded uncertainties.

For the compound `CC(C)(C)O` [2-methylpropan-2-ol] + CCCCCCCCCCCCn1cc[n+](C)c1.O=S(=O)([N-]S(=O)(=O)C(F)(F)F)C(F)(F)F, the activity coefficient came to 1.12 ± 0.07 (318.15 K); 1.08 ± 0.07 (328.15 K); 1.04 ± 0.07 (338.15 K); 0.998 ± 0.062 (348.15 K); 0.964 ± 0.061 (358.15 K); 0.933 ± 0.059 (368.15 K).

Regarding `CCC(C)CC` [3-methylpentane] + CCCCCCCCCCCCn1cc[n+](C)c1.O=S(=O)([N-]S(=O)(=O)C(F)(F)F)C(F)(F)F, the activity coefficient amounted to 2.77 ± 0.19 (318.15 K); 2.83 ± 0.19 (328.15 K); 2.89 ± 0.2 (338.15 K); 2.94 ± 0.2 (348.15 K); 2.99 ± 0.2 (358.15 K); 3.04 ± 0.21 (368.15 K).

As to `C=C(C)c1ccccc1` [(1-methylethenyl)benzene] + CCCCCCCCCCCCn1cc[n+](C)c1.O=S(=O)([N-]S(=O)(=O)C(F)(F)F)C(F)(F)F, the activity coefficient reads like this: (318.15 K) 0.79 ± 0.05; (328.15 K) 0.842 ± 0.054; (338.15 K) 0.896 ± 0.057; (348.15 K) 0.949 ± 0.06; (358.15 K) 1 ± 0.06; (368.15 K) 1.05 ± 0.07.

Regarding `CC(C)=O` [acetone] + CCCCCCCCCCCCn1cc[n+](C)c1.O=S(=O)([N-]S(=O)(=O)C(F)(F)F)C(F)(F)F, the activity coefficient runs as follows: (318.15 K) 0.353 ± 0.032; (328.15 K) 0.369 ± 0.033; (338.15 K) 0.386 ± 0.033; (348.15 K) 0.401 ± 0.034; (358.15 K) 0.417 ± 0.035; (368.15 K) 0.432 ± 0.035.

With `CC#N` [acetonitrile] + CCCCCCCCCCCCn1cc[n+](C)c1.O=S(=O)([N-]S(=O)(=O)C(F)(F)F)C(F)(F)F, the activity coefficient reads like this: (318.15 K) 0.508 ± 0.038; (328.15 K) 0.515 ± 0.038; (338.15 K) 0.524 ± 0.039; (348.15 K) 0.531 ± 0.039; (358.15 K) 0.539 ± 0.039; (368.15 K) 0.545 ± 0.04.

As to `c1ccccc1` [benzene] + CCCCCCCCCCCCn1cc[n+](C)c1.O=S(=O)([N-]S(=O)(=O)C(F)(F)F)C(F)(F)F, the activity coefficient stood at 0.568 ± 0.041 (318.15 K); 0.594 ± 0.042 (328.15 K); 0.619 ± 0.043 (338.15 K); 0.644 ± 0.044 (348.15 K); 0.669 ± 0.045 (358.15 K); 0.694 ± 0.047 (368.15 K).

`CCCCO` [butan-1-ol] + CCCCCCCCCCCCn1cc[n+](C)c1.O=S(=O)([N-]S(=O)(=O)C(F)(F)F)C(F)(F)F: the activity coefficient (318.15 K) was 1.55 ± 0.1; the activity coefficient (328.15 K) amounted to 1.46 ± 0.1; the activity coefficient (338.15 K) worked out at 1.38 ± 0.09; the activity coefficient (348.15 K) was 1.31 ± 0.09; the activity coefficient (358.15 K) is 1.24 ± 0.08; the activity coefficient (368.15 K) stood at 1.19 ± 0.08.

Take `CCC(C)O` (centres undefined) [butan-2-ol] + CCCCCCCCCCCCn1cc[n+](C)c1.O=S(=O)([N-]S(=O)(=O)C(F)(F)F)C(F)(F)F: the activity coefficient came to 1.29 ± 0.08 (318.15 K); 1.23 ± 0.08 (328.15 K); 1.18 ± 0.08 (338.15 K); 1.13 ± 0.07 (348.15 K); 1.09 ± 0.07 (358.15 K); 1.05 ± 0.07 (368.15 K).

With `CCCC=O` [butanal] + CCCCCCCCCCCCn1cc[n+](C)c1.O=S(=O)([N-]S(=O)(=O)C(F)(F)F)C(F)(F)F, the activity coefficient is, setting by setting: (318.15 K) 0.464 ± 0.036; (328.15 K) 0.486 ± 0.037; (338.15 K) 0.51 ± 0.038; (348.15 K) 0.531 ± 0.039; (358.15 K) 0.554 ± 0.04; (368.15 K) 0.575 ± 0.041.

As to `C1CCCCCC1` [cycloheptane] + CCCCCCCCCCCCn1cc[n+](C)c1.O=S(=O)([N-]S(=O)(=O)C(F)(F)F)C(F)(F)F, the activity coefficient runs as follows: (318.15 K) 2.43 ± 0.17; (328.15 K) 2.45 ± 0.17; (338.15 K) 2.47 ± 0.17; (348.15 K) 2.49 ± 0.17; (358.15 K) 2.5 ± 0.17; (368.15 K) 2.52 ± 0.17.

Consider `C1CCCCC1` [cyclohexane] + CCCCCCCCCCCCn1cc[n+](C)c1.O=S(=O)([N-]S(=O)(=O)C(F)(F)F)C(F)(F)F, for which the activity coefficient is, setting by setting: (318.15 K) 2.14 ± 0.15; (328.15 K) 2.15 ± 0.15; (338.15 K) 2.17 ± 0.15; (348.15 K) 2.18 ± 0.15; (358.15 K) 2.19 ± 0.15; (368.15 K) 2.21 ± 0.15.

In the case of `C1=CCCCC1` [cyclohexene] + CCCCCCCCCCCCn1cc[n+](C)c1.O=S(=O)([N-]S(=O)(=O)C(F)(F)F)C(F)(F)F, the activity coefficient was 1.56 ± 0.1 (318.15 K); 1.59 ± 0.11 (328.15 K); 1.62 ± 0.11 (338.15 K); 1.65 ± 0.11 (348.15 K); 1.68 ± 0.11 (358.15 K); 1.71 ± 0.11 (368.15 K).

In the case of `C1CCCCCCC1` [cyclooctane] + CCCCCCCCCCCCn1cc[n+](C)c1.O=S(=O)([N-]S(=O)(=O)C(F)(F)F)C(F)(F)F, the activity coefficient is, setting by setting: (318.15 K) 2.8 ± 0.19; (328.15 K) 2.82 ± 0.19; (338.15 K) 2.83 ± 0.19; (348.15 K) 2.84 ± 0.19; (358.15 K) 2.85 ± 0.19; (368.15 K) 2.86 ± 0.19.

Turning to `C1CCCC1` [cyclopentane] + CCCCCCCCCCCCn1cc[n+](C)c1.O=S(=O)([N-]S(=O)(=O)C(F)(F)F)C(F)(F)F, the activity coefficient runs as follows: (318.15 K) 1.75 ± 0.12; (328.15 K) 1.77 ± 0.12; (338.15 K) 1.8 ± 0.12; (348.15 K) 1.82 ± 0.12; (358.15 K) 1.84 ± 0.12; (368.15 K) 1.86 ± 0.13.

Take `CCCCCCCCCC` [decane] + CCCCCCCCCCCCn1cc[n+](C)c1.O=S(=O)([N-]S(=O)(=O)C(F)(F)F)C(F)(F)F: the activity coefficient runs as follows: (318.15 K) 5.82 ± 0.4; (328.15 K) 5.88 ± 0.4; (338.15 K) 5.95 ± 0.41; (348.15 K) 6 ± 0.41; (358.15 K) 6.06 ± 0.41; (368.15 K) 6.12 ± 0.42.

Regarding `CCOCC` [diethyl ether] + CCCCCCCCCCCCn1cc[n+](C)c1.O=S(=O)([N-]S(=O)(=O)C(F)(F)F)C(F)(F)F, the activity coefficient runs as follows: (318.15 K) 0.983 ± 0.062; (328.15 K) 1.03 ± 0.06; (338.15 K) 1.07 ± 0.07; (348.15 K) 1.12 ± 0.07; (358.15 K) 1.16 ± 0.07; (368.15 K) 1.2 ± 0.08.

On to `CC(C)OC(C)C` [diisopropyl ether] + CCCCCCCCCCCCn1cc[n+](C)c1.O=S(=O)([N-]S(=O)(=O)C(F)(F)F)C(F)(F)F, for which the activity coefficient came to 1.65 ± 0.11 (318.15 K); 1.72 ± 0.12 (328.15 K); 1.79 ± 0.12 (338.15 K); 1.86 ± 0.13 (348.15 K); 1.93 ± 0.13 (358.15 K); 1.99 ± 0.14 (368.15 K).

For `CCCOCCC` [dipropyl ether] + CCCCCCCCCCCCn1cc[n+](C)c1.O=S(=O)([N-]S(=O)(=O)C(F)(F)F)C(F)(F)F, the activity coefficient by setting is: (318.15 K) 1.67 ± 0.11; (328.15 K) 1.73 ± 0.12; (338.15 K) 1.79 ± 0.12; (348.15 K) 1.84 ± 0.12; (358.15 K) 1.89 ± 0.13; (368.15 K) 1.94 ± 0.13.

Regarding `CCO` [ethanol] + CCCCCCCCCCCCn1cc[n+](C)c1.O=S(=O)([N-]S(=O)(=O)C(F)(F)F)C(F)(F)F, the activity coefficient is, setting by setting: (318.15 K) 1.38 ± 0.09; (328.15 K) 1.3 ± 0.08; (338.15 K) 1.23 ± 0.08; (348.15 K) 1.17 ± 0.07; (358.15 K) 1.11 ± 0.07; (368.15 K) 1.06 ± 0.07.

Source of the values: the NIST ThermoML archive (doi:10.1016/j.jct.2016.08.008).
